Experimental data reported in patent US4414388A, “1-Oxo-1H-thiazolo[3,2-a]pyrimidine-2-carboxamides” (Pfizer Inc., priority 1981, dated 1983).

Columns and labels:
[1] = system: dogs; assay: dogs, intravenous five days, serum enzymes; type: in vivo, dog; conditions: i.v. five days at 1, 3, 10, 3 and 3 mg/kg
[2] = system: urinary volume output; assay: diuretic activity; type: in vivo; conditions: oral
Method: When given orally, it caused a dose-related increase in urinary volume output at doses in the range 0.3 to 5 mg/kg. […] These findings indicate that the dose-response range for diuretic activity is considerably higher than that for antiulcer effects and just below that for antiallergy effects (1 to 10 mg/kg).

[3] = system: isolated rat monocytes; assay: ionophore-stimulated synthesis and release of SRS in isolated monocytes; type: cell-based
[4] = plasma concentration / oral absorption in dogs; type: in vivo, dog
Method: (§1) This is supported by the observations of plasma concentrations of 3 to 7 μg/ml one hour after oral administration of III, 50 to 300 mg/kg.

[5] = system: histamine and serotonin; assay: cutaneous permeability caused by intradermal exogenous histamine and serotonin; type: in vivo, rat
Method: The ability of agents to interfere with PCA reactions is measured in male Charles River Wistar rats, 170-210 g. Reaginic antiserum, rich in IgE antibodies, is prepared according to Petillo et al., Int. Arch. Allergy, 44, 309 (1973). Hyperimmune antiserum rich in IgG antibodies to hen egg albumin is prepared according to Orange et al., J. Exptl. Med., 127, 767 (1968). Forty-eight hours prior to antigen challenge, the reaginic antiserum is injected intradermally (i.d.) into the shaved skin of a normal rat's back; 5 hours before challenge the hyperimmune antisera is similarly injected. At a third site 60 mcg. histamine dihydrochloride and 0.5 mcg. serotonin creatinine sulfate are injected i.d. just prior to antigen challenge as a check for antihistaminic, antiserotonin and unspecific types of blockage; the compounds of the instant invention or saline are then administered i.v. and immediately followed by the challenge of 5 mg. egg albumen and 2.5 mg. Evans' Blue dye in saline. In the case of oral administration Evans' Blue dye and egg albumin are given 5 minutes after administration of the drug. Thirty minutes later the animals are asphyxiated using chloroform and the skin of the back removed and reversed for observation. […] The difference is expressed as percent blockage due to the compound employed.

[6] = system: bone marrow; assay: chromosomal damage in bone marrow of mice; type: in vivo, mouse; conditions: single oral dose 40 mg/kg; 6, 12 or 24 hours
Method: Single oral doses of III, 40 mg/kg, were administered to groups of mice who were sacrificed 6, 12 or 24 hours later. […] From these findings, it is evident that III has no obvious mutagenic potential.

[7] = system: anesthetized dogs; assay: cardiovascular effects in anesthetized dogs; type: in vivo, dog; conditions: cumulative doses of 5 and 15 mg/kg, i.v.
[8] = stability (solid state, in admixture and in solution); type: physicochemical; conditions: pure solid state, with standard pharmaceutical diluents
[9] = system: ulcerogenic effects of aspirin; assay: aspirin-induced gastric ulcer; type: in vivo; conditions: po; aspirin 100 mg/kg p.o.
Method: Compound III also protects against the ulcerogenic effects of aspirin, 100 mg/kg p.o. where dose-related effects are seen over the dose range of 10 to 1000 μg/kg, p.o. with an ED50 of 100 μg/kg. Compound III is also active in a phenylbutazone gastric ulcer model where an oral ED50 of 200 μg/kg is observed. […] "Cytoprotective," a term coined recently to describe the antiulcer effects of prostaglandins that are independent of antisecretory activity, [Robert, Advances in Prostaglandin and Thromboxane Research 2, 507 (1976); Miller et al., Gut 20, 75 (1979); Robert et al., Gastroenterology 72, 1121 (1977).] aptly characterizes the effects of compound III.

[10] = system: pentagastrin-stimulated acid output; assay: pentagastrin-stimulated acid output in Heidenhain pouch dogs; type: in vivo, dog; conditions: 5 mg/kg, i.v.
[11] = system: dogs; assay: toleration study in dogs, 7 days oral; type: in vivo, dog
Method: In toleration studies, III was given orally by gavage to dogs for a period of seven days at doses of 50, 150 and 300 mg/kg/day.

[12] = system: passive cutaneous anaphylaxis (PCA); assay: PCA test, oral activity in general; type: in vivo, rat
Method: The antiallergy property of the compounds of this invention is evaluated by the passive cutaneous anaphylaxis (PCA) test (Ovary, J. Immun., 81, 355, 1958). In the PCA test, normal animals are injected intradermally (i.d.) with antibodies contained in serum obtained from actively sensitized animals. The animals are then challenged intravenously with antigen mixed with a dye such as Evans' Blue. The increased capillary permeability caused by the antigen-antibody reaction causes the dye to leak from the site of the antibody injection. The test animals are then asphyxiated and the intensity of the reaction determined by measuring the diameter and intensity of the blue coloration on the inner surface of the animals' skin.
The ability of agents to interfere with PCA reactions is measured in male Charles River Wistar rats, 170-210 g. Reaginic antiserum, rich in IgE antibodies, is prepared according to Petillo et al., Int. Arch. Allergy, 44, 309 (1973). Hyperimmune antiserum rich in IgG antibodies to hen egg albumin is prepared according to Orange et al., J. Exptl. Med., 127, 767 (1968). Forty-eight hours prior to antigen challenge, the reaginic antiserum is injected intradermally (i.d.) into the shaved skin of a normal rat's back; 5 hours before challenge the hyperimmune antisera is similarly injected. […] The difference is expressed as percent blockage due to the compound employed.

[13] = system: rats; assay: toleration study in rats, 10 days oral; type: in vivo, rat
Method: Rats were given III orally by gavage at doses of 50, 150 and 300 mg/kg/day for 10 days.

[14] = plasma concentration / oral absorption in rats; type: in vivo, rat
Method: as §1

[15] = system: human lymphocytes; assay: chromosomal breakage in human lymphocytes in vitro; type: cell-based; conditions: 1000, 100, 10 or 0 μg/ml
[16] = system: blood glucose; assay: blood glucose levels in fasted rats; type: in vivo, rat; conditions: oral, 10, 30 or 100 mg/kg; fasted 24 hours
[17] = system: mice; assay: acute subcutaneous toleration in mice; conditions: mouse, in vivo
Method: (§2) Compound III was administered subcutaneously to mice at doses of 100, 300 or 1000 mg/kg.

[18] = acute subcutaneous toleration in mice; conditions: mouse, in vivo, sc; subcutaneous, mice
Method: as §2

[19] = system: point mutations; assay: Ames test in vitro; type: cell-based
[20] = oral gavage 50, 150 and 300 mg/kg/day, seven days
[21] = oral gavage 50, 150 and 300 mg/kg/day

With `O=C(Nc1nnn[nH]1)c1cnc2sc3c(n2c1=O)CCCC3` [compound III, N-(5-tetrazolyl)-1-oxo-1H-cyclohexenothiazolo[3,2-a]pyrimidine-2-carboxamide] the serum enzyme levels [1] was “remained normal”, the “sodium and potassium excretion” value [2] was “an increase in sodium and potassium excretion was observed” and the “urinary concentrations of sodium and potassium ions” value [2] was “unchanged”. For the same molecule, the “maximum effect on urinary volume output” value ([2]; 0.3 to 5 mg/kg) was “twofold increase in volume output”, the “synthesis and release of SRS in isolated rat monocytes, stimulated by an ionophore” value [3] was “is not inhibited” and the “oral absorption, dog” value ([4]; oral suspensions or capsules) was “absorbed readily”. For the same molecule, the concentration at 1 h ([4]; plasma, dog, one hour, oral 50 to 300 mg/kg, suspensions or capsules, read-out: plasma concentration one hour after oral administration, dog) was 9000 to 26000 ng/mL, the “changes in permeability caused by intradermal histamine and serotonin” value ([5]; exogenous histamine and serotonin, intradermal) was “does not interfere with the changes in permeability” and the “antihistaminic and antiserotonin effects” value ([5]; rat, in vivo) was “absence of antihistaminic and antiserotonin effects”. The “chromosomal damage in bone marrow, single dose” value [6] was “did not reveal any chromosomal damage”, the blood pressure [7] was “transient hypotension” and the heart rate [7] was “variable changes in heart rate”. The “pressor responses to epinephrine and bilateral carotid occlusion” value [7] was “diminished slightly”, the stability [8] was “exceptionally good stability” and the stability ([8]; listed as formula III) was “highly stable”. The ED50 [9] was 0.1 mg/kg, the pentagastrin-stimulated acid output [10] was “does not affect pentagastrin-stimulated acid output” and the “emetic effect when administered by capsule after meals” value ([11]; capsule after, rather than before, meals) was “could be eliminated”. The emesis [11, 20] was “observed at all doses”, the gross pathological changes [11, 20] was “No gross pathological changes were observed” and the “microscopic examination of liver, kidney, heart and lung” value [11, 20] was “did not reveal any changes”. For the same molecule, the “oral activity, in words” value [12] was “excellent oral activity”, the serum glutamic-pyruvic transaminase ([13]; highest dose (300 mg/kg/day)) was “slight increase” and the “changes in clinical chemistry (other than serum glutamic-pyruvic transaminase)” value [13, 21] was “no changes in clinical chemistry were observed”. The “pathological changes on gross and microscopic evaluation of liver, kidney, heart and lung” value [13, 21] was “no resultant pathological changes”, the concentration at 1 h ([14]; plasma, rat, one hour, oral 50 to 300 mg/kg, read-out: plasma concentration one hour after oral administration, rat) was 3000 to 7000 ng/mL and the “oral absorption, rat” value ([14]; ratio of comparably effective oral and intravenous doses in rat PCA test) was “good oral absorption”. The “chromosomal breakage in human lymphocytes” value [15] was “failed to reveal any significant drug-induced chromosomal breakage”, the “changes in blood glucose levels” value [16] was “did not exhibit any changes in blood glucose levels” and the symptoms or lethality [17] was “No symptoms or lethality was observed”. The LD50 [18] was greater than 1000 mg/kg and the “point mutations, Ames test” value [19] was “did not induce point mutations”.
